Data on one compound can be found in patent US12508323B2, “Method of treatment of colorectal, breast and lung cancer with metal containing immune agonist complexes” (HANGZHOU XINGAO BIOTECHNOLOGY CO., LTD., priority 2020, dated 2025).

Common to all, as to format: in vivo
For assay [1], the system named is mice with localized cerebral ischemia. Description: Local cerebral ischemia model (wire bolus method), Zea Longa 5-point behavioral score. As to conditions: ICR mice, 10 mg/kg i.p., Zea Longa 5-point scale (0 normal to 4). The source says:
Healthy male ICR mice, weighing 18-20 g, were purchased from Shanghai Slaughter Laboratory Animal Co (quality certificate number (SCXK(SH) 2007-0005)) and raised in a cleaning experimental animal room.
Local cerebral ischemia model was made by wire bolus method to verify the therapeutic effects of immune agonist complexes on cerebral ischemic brain diseases in experimental animals.
Experimental mice were anesthetized with 10% chloral hydrate intraperitoneally, and a median cervical incision was made to separate and ligate the proximal segment of the right common carotid artery, the carotid artery and branch vessels thereof. The right internal carotid artery was isolated, the pterygopalatine artery was isolated downward along the internal carotid artery, and the root was ligated for this branch. The proximal end of the internal carotid was provided with a prepared wire, and the distal end of the internal carotid was provided with an artery clip. […] Behavioral scoring was performed after surgery, and the scoring was single-blinded with reference to the Zea Longa 5-point scale, which was scored as follows: 0, normal mice with no signs of neurological injury; 1, unable to fully extend the contralateral front paw; 2, turning in a circle to the outside; 3, relatively measured tipping; and 4, unable to walk spontaneously, and loss of consciousness injury. […]

The test system of assay [2] is APP/PS1 transgenic AD model mice. Description: Morris water maze test in AD mice. Particulars: 10 mg/kg i.p. once a day for 60 days, space exploration test. The protocol:
APP/PS1 transgenic AD model mice were purchased from Southern Model Biotechnology Co., Ltd., which were 4 months in age, and 24-26 g in weight. […]
A circular pool was designed, which was 1 m in diameter, 50 cm in height, 30 cm deep, and white bottom. […] After the mice found the platform or could not find the platform within 90 seconds (the latency period was recorded as 90 seconds), they were guided to the platform by the experimenter and rested on the platform for 10 seconds before the next trial.
24 h after the end of the positioning navigation test, the platform was removed. Then the mice were put into the water from the third quadrant, and the swimming paths of the mice were recorded within 180 s. The residence time of the mice in the target quadrant (third quadrant) and the number of times they crossed the location of the original platform were recorded to observe the spatial orientation ability of the mice. […]

The next assay relates to TREM2. The assay can be described thus: TREM2 expression in brain tissues of AD mice. Particulars: 10 mg/kg i.p., 60 days of administration. The source says:
ELISA kits were purchased from Cloud Clone. Flow cytometry nanobodies were purchased from eBiosciences. RT-PCR reagents were purchased from Takara. Immune fluorescence and immune histochemistry nanobodies were purchased from Abcam. Other reagents were purchased from Sigma-Aldrich. Primer synthesis was done by Shanghai Biotechnology Co. Laser confocal microscope was purchased from Leica (Germany). 7500 quantitative PCR instrument was purchased from Applied Biosystems ABI (USA). Light microscope was purchased from Leica (Germany). Enzyme marker was purchased from Hangzhou Aosheng Company. Attune flow cytometer was purchased from Thermo Fisher Scientific. RT-PCR in vitro TREM2 content was determined, and the TREM2 primer sequences were as follows:
Whether mRNA levels of TREM2 in brain tissues of mice were altered after administration of the immune agonist and complexes thereof was determined.

For `Nc1nc(=O)c2ncn(C3OC4COP(=O)(O)OC5C(COP(=O)(O)OC3C4O)OC(n3cnc4c(N)ncnc43)C5O)c2[nH]1` (stereo not shown) [cGAMP, 2′3′-cGAMP], in assay [1], the “Behavioral scores (24 hours after surgery)” value was found to be 2.26 ± 0.40 and the “Behavioral scores (7 days after surgery)” value is given as 1.65 ± 0.34. In addition, in assay [2], the “Percentage of time to cross the third quadrant platform in AD mice (%)” value is given as 0.55 ± 0.10%. Further, the “TREM2” value in the assay with TREM2 worked out at 55.38 ± 0.27 pg/mg.
